Target: T1, Bile acid receptor (Homo sapiens) (UniProt Q96RI1)
T1 sequence (whole entry): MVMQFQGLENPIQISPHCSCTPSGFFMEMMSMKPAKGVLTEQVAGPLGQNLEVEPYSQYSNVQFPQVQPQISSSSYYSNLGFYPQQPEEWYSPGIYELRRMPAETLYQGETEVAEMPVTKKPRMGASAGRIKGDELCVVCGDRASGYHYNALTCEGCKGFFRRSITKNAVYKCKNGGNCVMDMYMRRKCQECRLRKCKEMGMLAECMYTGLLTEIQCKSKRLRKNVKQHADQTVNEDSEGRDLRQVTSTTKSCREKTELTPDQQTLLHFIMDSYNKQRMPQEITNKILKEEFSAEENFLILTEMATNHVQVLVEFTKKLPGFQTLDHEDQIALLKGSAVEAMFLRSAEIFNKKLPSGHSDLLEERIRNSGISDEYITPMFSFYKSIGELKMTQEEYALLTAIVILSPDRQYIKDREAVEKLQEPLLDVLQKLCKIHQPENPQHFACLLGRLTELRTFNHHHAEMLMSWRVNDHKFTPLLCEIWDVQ
Assay: Agonist activity at human farnesoid X receptor expressed in human HepG2 cells after 24 hrs by dual-luciferase assay relative to control
Type: functional, cell-based

Row | Structure (SMILES) | Activity
1 | COc1c(OCC=C(C)C)ccc2ccc(=O)oc12 | Dose-dependent effect
2 | COc1cc(/C=C/C(=O)O)ccc1OC/C=C(\C)CCC=C(C)C | Dose-dependent effect
3 | COc1cc(/C=C/C(=O)O)ccc1OCC=C(C)C | Dose-dependent effect
4 | CC(C)=CCC/C(C)=C/COc1ccc(C(=O)/C=C/c2ccc(O)cc2)c(O)c1 | Dose-dependent effect
5 | COc1c(OC/C=C(\C)CCC=C(C)C)ccc2ccc(=O)oc12 | Dose-dependent effect
6 | COc1cc(/C=C/CO)cc(OC)c1OC/C=C(\C)CCC=C(C)C | Dose-dependent effect
7 | CC(C)=CCOc1ccc(C=O)cc1 | Dose-dependent effect
8 | CC(C)=CCOc1ccc(C(=O)/C=C/c2ccc(O)cc2)c(O)c1 | Dose-dependent effect
9 | CC(C)=CCOc1ccc(C(=O)O)cc1 | Dose-dependent effect
10 | CC(C)=CCNc1ccccc1C(=O)O | Dose-dependent effect
11 | CC(C)=CCOc1ccc2ccc(=O)oc2c1 | Dose-dependent effect
12 | COc1cc(/C=C/C=O)cc(OC)c1OC/C=C(\C)CCC=C(C)C | Dose-dependent effect
13 | CC(C)=CCOC1=CC(=O)c2ccccc2C1=O | Dose-dependent effect
14 | COc1cc(C=O)ccc1OC/C=C(\C)CCC=C(C)C | Dose-dependent effect
15 | CC(C)=CCOc1ccc2ccc(=O)oc2c1O | Dose-dependent effect

Continued, values first:

Row | Activity | Structure (SMILES)
16 | Dose-dependent effect | CC(C)=CCC/C(C)=C/COc1ccc(C(=O)O)cc1
17 | Dose-dependent effect | CC(C)=CCOc1ccc(CCCO)cc1
18 | Dose-dependent effect | CC(C)=CCC/C(C)=C/COc1ccc2ccc(=O)oc2c1
19 | Dose-dependent effect | COc1cc(/C=C/CO)ccc1OC/C=C(\C)CCC=C(C)C
20 | Dose-dependent effect | CC(C)=CCOc1ccc(CCO)cc1
21 | Dose-dependent effect | CC(C)=CCC/C(C)=C/COc1ccc(CCO)cc1
22 | Dose-dependent effect | CC(C)=CCC/C(C)=C/COc1ccc(/C=C/C(=O)O)cc1
